Measured values as given in PubChem BioAssay (NCI).
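The compound was tested at five concentrations on cells cultured in 96-well plates, with a 48-hour exposure period. GI50 marks 50% less growth. TGI is the concentration that stops growth completely.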

How the values were obtained:
Assay in all cases: DTP human tumour cell line panel, 48 h
[1] = test system: MDA-MB-231 breast
[2] = test system: T-47D breast
[3] = test system: IGROV1 ovarian
[4] = test system: K-562 leukemia
[5] = test system: SK-MEL-2 melanoma
[6] = test system: NCI-H460 lung
[7] = test system: A549 NSCLC
[8] = test system: OVCAR-4 ovarian
[9] = test system: HCC-2998 colon
[10] = test system: UACC-257 melanoma
[11] = test system: HT29 colon
[12] = test system: ACHN renal
[13] = test system: SNB-75 CNS
[14] = test system: HS 578T breast
[15] = test system: SK-MEL-5 melanoma
[16] = test system: HCT-116 colon
[17] = test system: SF-268 CNS
[18] = test system: TK-10 renal
[19] = test system: SF-539 CNS
[20] = test system: HOP-92 NSCLC
[21] = test system: COLO 205 colon
[22] = test system: SNB-19 CNS
[23] = test system: EKVX NSCLC
[24] = test system: CAKI-1 renal
[25] = test system: DU-145 prostate
[26] = test system: U251 CNS
[27] = test system: HCT-15 colon
[28] = test system: HOP-62 NSCLC

Molecule `O=C(NCCCNc1cc(-c2cn(-c3ccccc3)nc2-c2cccc(O)c2)ccn1)Nc1ccc(F)cc1` has a GI50 [1] of 2.18 µM, a TGI [1] of 7.78 µM and a GI50 [2] of 1.89 µM. It also gave a TGI [2] of 11 µM, a GI50 [3] of 1.23 µM and a TGI [3] of 5.82 µM. It also gave a GI50 [4] of 0.812 µM, a TGI [4] of 25 µM and a GI50 [5] of 4 µM. The TGI [5] was 10.1 µM, the GI50 [6] was 2.35 µM and the TGI [6] was 5.88 µM. It also gave a GI50 [7] of 3.12 µM, a TGI [7] of 21.7 µM and a GI50 [8] of 1.46 µM. It also gave a TGI [8] of 8.21 µM, a GI50 [9] of 1.09 µM and a TGI [9] of 4.05 µM. For the same molecule, the GI50 [10] was 3.07 µM, the TGI [10] was 7.54 µM and the GI50 [11] was 1.09 µM. For the same molecule, the TGI [11] was 4.99 µM, the GI50 [12] was 3.16 µM and the TGI [12] was 14.2 µM. It also gave a GI50 [13] of 0.543 µM, a TGI [13] of 3.18 µM and a GI50 [14] of 0.984 µM. For the same molecule, the TGI [14] was 5.31 µM, the GI50 [15] was 1.64 µM and the TGI [15] was 4.83 µM. For the same molecule, the GI50 [16] was 1.62 µM, the TGI [16] was 5.82 µM and the GI50 [17] was 2.61 µM. For the same molecule, the TGI [17] was 11.2 µM, the GI50 [18] was 6.78 µM and the TGI [18] was 20.3 µM. For the same molecule, the GI50 [19] was 1.98 µM, the TGI [19] was 5.38 µM and the GI50 [20] was 0.86 µM. It also gave a TGI [20] of 4.97 µM, a GI50 [21] of 2.34 µM and a TGI [21] of 6.28 µM. The GI50 [22] was 3.29 µM, the TGI [22] was 9.75 µM and the GI50 [23] was 2.74 µM. The TGI [23] was 9.51 µM, the GI50 [24] was 2.04 µM and the TGI [24] was 10.7 µM. For the same molecule, the GI50 [25] was 4.22 µM, the TGI [25] was 19.3 µM and the GI50 [26] was 2.05 µM. It also gave a TGI [26] of 7.55 µM, a GI50 [27] of 0.936 µM and a TGI [27] of 4.04 µM. The GI50 [28] was 3.24 µM and the TGI [28] was 9.26 µM.
